ChEMBL document CHEMBL3885861, “Open TG-GATES”

Organism: Rattus norvegicus
Assay: Open TG-GATES - Regimen: Daily Repeat
Type: toxicity, organism-based, Sprague-Dawley
Parameters: regimen Daily Repeat, gender Male, age 6 weeks
Conditions: in vivo, po, route gavage; for APTT / Bas / Eos / Fbg / Hb / Ht / Lym / MCH / MCHC / MCV / Mono / PT / Plat / RBC / Ret / WBC: tissue Blood; for KIDNEY_L / KIDNEY_R / KIDNEY_TOTAL: tissue Kidney; for ALP / ALT / AST / BUN / CRE / Ca / DBIL / GLC / IP / K / LDH / Na / PL / RALB / TBIL / TC / TG / TP / gamma-GTP: tissue Plasma
[1] = 0 mg/kg, 72 h, dose level Control, time 3 day
[2] = 0 mg/kg, […], dose level Control, time 7 day
[3] = 0 mg/kg, […], dose level Control, time 14 day
[4] = 0 mg/kg, […], dose level Control, time 28 day
[5] = 20 mg/kg, 72 h, dose level Low, time 3 day
[6] = 20 mg/kg, […], dose level Low, time 7 day
[7] = 20 mg/kg, […], dose level Low, time 14 day
[8] = 20 mg/kg, […], dose level Low, time 28 day
[9] = 60 mg/kg, 72 h, dose level Middle, time 3 day

## CC(C)Cc1ccc(C(C)C(=O)O)cc1 (centres undefined) [IBUPROFEN]
[1]
  TERMINAL_BW: 222.9 g
  APTT: 20.4 s
  Bas: 0%
  Eos: 1%
  Fbg: 283.4 mg/dL
  Hb: 13.2 g/dL
  Ht: 38.4%
  Lym: 79.8%
  MCH: 22.3 pg
  MCHC: 34.5%
  MCV: 64.7 fL
  Mono: 2.8%
  PT: 15.5 s
  Plat: 111.7 x10_4/uL
  RBC: 593 x10_4/ul
  Ret: 6.7%
  WBC: 110.2 x10_2/uL
  KIDNEY_L: 0.9 g
  KIDNEY_R: 1 g
  KIDNEY_TOTAL: 1.9 g
  ALP: 1697.6 IU/L
  ALT: 44.8 IU/L
  AST: 76.6 IU/L
  BUN: 17.2 mg/dL
  CRE: 0.2 mg/dL
  Ca: 11 mg/dL
  DBIL: 0 mg/dL
  GLC: 200 mg/dL
  IP: 7.7 mg/dL
  K: 4.1 meq/L
  LDH: 208 IU/L
  Na: 141.4 meq/L
  PL: 143.6 mg/dL
  RALB: 3 g/dL
  TBIL: 0.006 mg/dL
  TC: 77 mg/dL
  TG: 84 mg/dL
  TP: 5.5 g/dL
  gamma-GTP: 1.2 IU/L
[2]
  TERMINAL_BW: 270 g
  APTT: 21.5 s
  Bas: 0%
  Eos: 0.8%
  Fbg: 292.8 mg/dL
  Hb: 13.1 g/dL
  Ht: 37.3%
  Lym: 80%
  MCH: 21.6 pg
  MCHC: 35%
  MCV: 61.7 fL
  Mono: 2.4%
  PT: 16.1 s
  Plat: 123.8 x10_4/uL
  RBC: 604.6 x10_4/ul
  Ret: 6.7%
  WBC: 126 x10_2/uL
  KIDNEY_L: 1.1 g
  KIDNEY_R: 1.2 g
  KIDNEY_TOTAL: 2.3 g
  ALP: 1943 IU/L
  ALT: 46.8 IU/L
  AST: 76.6 IU/L
  BUN: 18.6 mg/dL
  CRE: 0.2 mg/dL
  DBIL: 0 mg/dL
  GLC: 179.2 mg/dL
  IP: 7.6 mg/dL
  K: 4.2 meq/L
  LDH: 170.2 IU/L
  Na: 138.6 meq/L
  PL: 136.2 mg/dL
  RALB: 3.1 g/dL
  TBIL: 0.004 mg/dL
  TC: 71.2 mg/dL
  TG: 100.8 mg/dL
  TP: 5.5 g/dL
  gamma-GTP: 2.6 IU/L
[3]
  TERMINAL_BW: 304.6 g
  Bas: 0%
  Eos: 0.6%
  Fbg: 355.2 mg/dL
  Ht: 41.1%
  Lym: 83.8%
  MCHC: 34.7%
  MCV: 59.9 fL
  Mono: 2%
  PT: 16 s
  Plat: 115.8 x10_4/uL
  RBC: 686.2 x10_4/ul
  Ret: 4.9%
  WBC: 104.5 x10_2/uL
  KIDNEY_L: 1.2 g
  KIDNEY_R: 1.2 g
  KIDNEY_TOTAL: 2.4 g
  ALP: 1425.2 IU/L
  ALT: 37.4 IU/L
  AST: 65.8 IU/L
  BUN: 19.2 mg/dL
  CRE: 0.2 mg/dL
  DBIL: 0 mg/dL
  GLC: 200.4 mg/dL
  IP: 7.7 mg/dL
  K: 4.1 meq/L
  LDH: 118.4 IU/L
  Na: 140.6 meq/L
  PL: 149 mg/dL
  RALB: 3 g/dL
  TBIL: 0.012 mg/dL
  TC: 73.4 mg/dL
  TP: 5.8 g/dL
  gamma-GTP: 2.2 IU/L
[4]
  TERMINAL_BW: 398.5 g
  APTT: 21.9 s
  Bas: 0%
  Eos: 1.2%
  Fbg: 340.2 mg/dL
  Hb: 14.8 g/dL
  Ht: 43%
  Lym: 84.4%
  MCH: 19.2 pg
  MCHC: 34.4%
  MCV: 55.9 fL
  Mono: 2.2%
  PT: 16.9 s
  RBC: 768.2 x10_4/ul
  Ret: 2.7%
  KIDNEY_L: 1.3 g
  KIDNEY_R: 1.4 g
  KIDNEY_TOTAL: 2.7 g
  ALP: 1191 IU/L
  ALT: 35.2 IU/L
  AST: 66.2 IU/L
  CRE: 0.2 mg/dL
  DBIL: 0 mg/dL
  GLC: 196 mg/dL
  IP: 6.3 mg/dL
  K: 4.1 meq/L
  LDH: 170.6 IU/L
  Na: 140.8 meq/L
  PL: 144.6 mg/dL
  RALB: 3.2 g/dL
  TBIL: 0.002 mg/dL
  TC: 66.6 mg/dL
  TG: 143.8 mg/dL
  TP: 6.1 g/dL
  gamma-GTP: 3 IU/L
[5]
  TERMINAL_BW: 230.1 g
  APTT: 21.4 s
  Bas: 0%
  Eos: 0.6%
  Fbg: 301 mg/dL
  Hb: 13.6 g/dL
  Ht: 39.5%
  Lym: 75.8%
  MCH: 22 pg
  MCHC: 34.3%
  MCV: 64 fL
  Mono: 3%
  PT: 15.5 s
  Plat: 120.5 x10_4/uL
  RBC: 617.6 x10_4/ul
  Ret: 6.7%
  WBC: 117.5 x10_2/uL
  KIDNEY_L: 1 g
  KIDNEY_R: 1 g
  KIDNEY_TOTAL: 2 g
  ALP: 1847.8 IU/L
  ALT: 42.8 IU/L
  AST: 75 IU/L
  BUN: 17.8 mg/dL
  CRE: 0.2 mg/dL
  Ca: 11 mg/dL
  DBIL: 0 mg/dL
  GLC: 182.8 mg/dL
  IP: 7.4 mg/dL
  K: 4.4 meq/L
  LDH: 222 IU/L
  Na: 141.4 meq/L
  PL: 152.6 mg/dL
  RALB: 3.1 g/dL
  TBIL: 0.004 mg/dL
  TC: 81.4 mg/dL
  TG: 113.6 mg/dL
  TP: 5.6 g/dL
  gamma-GTP: 1.2 IU/L
[6]
  TERMINAL_BW: 245.9 g
  Bas: 0%
  Eos: 1%
  Fbg: 311 mg/dL
  Hb: 13.6 g/dL
  Ht: 39.4%
  Lym: 75.6%
  MCH: 21.4 pg
  MCHC: 34.6%
  MCV: 61.9 fL
  Mono: 2.8%
  PT: 15.9 s
  Plat: 121 x10_4/uL
  RBC: 638 x10_4/ul
  Ret: 5.8%
  KIDNEY_L: 1.1 g
  KIDNEY_R: 1.1 g
  KIDNEY_TOTAL: 2.1 g
  ALP: 1657.2 IU/L
  ALT: 43.6 IU/L
  AST: 73 IU/L
  BUN: 18 mg/dL
  CRE: 0.2 mg/dL
  DBIL: 0 mg/dL
  GLC: 183.4 mg/dL
  IP: 6.8 mg/dL
  K: 4.1 meq/L
  LDH: 167.2 IU/L
  Na: 139.8 meq/L
  PL: 150.8 mg/dL
  RALB: 3 g/dL
  TBIL: 0.004 mg/dL
  TC: 71.6 mg/dL
  TG: 128.2 mg/dL
  TP: 5.6 g/dL
  gamma-GTP: 2.2 IU/L
[7]
  TERMINAL_BW: 307.6 g
  APTT: 24 s
  Bas: 0%
  Eos: 0.8%
  Fbg: 339.6 mg/dL
  Ht: 41%
  Lym: 80.4%
  MCHC: 34.6%
  MCV: 60.2 fL
  Mono: 2.2%
  PT: 15.8 s
  Plat: 116.9 x10_4/uL
  RBC: 682.4 x10_4/ul
  Ret: 4.7%
  WBC: 120.7 x10_2/uL
  KIDNEY_L: 1.2 g
  KIDNEY_R: 1.2 g
  KIDNEY_TOTAL: 2.4 g
  ALP: 1385.4 IU/L
  ALT: 45 IU/L
  AST: 73.4 IU/L
  CRE: 0.2 mg/dL
  DBIL: 0 mg/dL
  GLC: 197.2 mg/dL
  IP: 7.2 mg/dL
  K: 3.9 meq/L
  LDH: 129.4 IU/L
  Na: 141.8 meq/L
  PL: 150 mg/dL
  RALB: 3.1 g/dL
  TBIL: 0.006 mg/dL
  TC: 75.4 mg/dL
  TG: 122.6 mg/dL
  TP: 5.7 g/dL
  gamma-GTP: 2.4 IU/L
[8]
  TERMINAL_BW: 358.8 g
  Bas: 0%
  Eos: 1.2%
  Fbg: 317.5 mg/dL
  Hb: 14.8 g/dL
  Ht: 43%
  Lym: 78.5%
  MCH: 19.2 pg
  MCHC: 34.5%
  MCV: 55.8 fL
  Mono: 2.5%
  Plat: 98.8 x10_4/uL
  RBC: 771 x10_4/ul
  Ret: 2.8%
  WBC: 94.9 x10_2/uL
  KIDNEY_L: 1.3 g
  KIDNEY_R: 1.3 g
  KIDNEY_TOTAL: 2.5 g
  ALP: 1303 IU/L
  ALT: 38.8 IU/L
  AST: 67.5 IU/L
  CRE: 0.2 mg/dL
  DBIL: 0 mg/dL
  GLC: 196 mg/dL
  IP: 5.6 mg/dL
  K: 3.7 meq/L
  LDH: 181.8 IU/L
  Na: 142.5 meq/L
  PL: 149.8 mg/dL
  RALB: 3.3 g/dL
  TBIL: 0.005 mg/dL
  TC: 72.5 mg/dL
  TG: 129.5 mg/dL
  TP: 6.1 g/dL
  gamma-GTP: 2.8 IU/L
[9]
  TERMINAL_BW: 227 g
  APTT: 20.5 s
  Bas: 0%
